One assay has as its system c-Met and c-Myc. In words: Western blot of Ca127 tumor lysates. The conditions noted are these: Ca127 xenograft tumors. The format is in vivo, nude mice. Here is the method: Lysates from control, BME or M-I treated cells and tumors were prepared using 2 SDS sample buffer and subjected to western blot analysis using specific antibodies to c-Met (1:500, Cell Signaling Technology, CST, Denvers, Mass., USA,), phospho-STAT3 (pSTAT3-Tyr-705) (1:1000, CST), total STAT3 (1:1000, CST), c-Myc (1:1000, CST), surviving (1:500, Santa Cruz Biotechnology, SBT, Dallas, Tex., USA) and cyclin D1 (1: 500, SBT). HRP conjugated anti-mouse or anti-rabbit secondary antibodies were purchased from Bio-Rad (Hercules, Calif., USA). The blot was reprobed with HRP conjugated -actin antibody (1:5000; SBT) to compare protein load in each lane. Densitometry analysis was done using Image J software (NIH, Bethesda, Md., USA).
JHU029 or Ca127 cells (1.5 10^6) containing 40% Matrigel were injected subcutaneously into the flank of BALB/c athymic nude mice (7-8 weeks old). When the palpable tumor was developed (>60 mm3), mice were divided into three groups randomly, 5 mice in each group. The control group was without any treatment. The BME group received 30% (v/v) BME through drinking water. M-I group received 30 mg/kg dose of M-I once in day, every day. Body weight was monitored, and tumor size was measured using a slide caliper and volume was calculated using the formula 1/2 L X W2. After animal sacrifice tumors were dissected out and snap frozen in liquid nitrogen for further analysis. […]
(Immunoblotting shows a protein as a band on a membrane.)

For another assay, the system named is MDA-MB-231 cells. As to the kind of experiment: Cell viability of MDA-MB-231 cells. The format is cell-based. To be noted: Homo sapiens, 72h. The procedure:
(§1) FIG. 8 illustrates 4T1 and MDA-MB-231 cells treated with M-I at indicated doses for 72h. The viability of control cells was arbitrarily set to 100%. Results shown are an average of three independent experiments. Data are represented as mean±SD.
(§2) The Inventors tested human MDA-MB-231 and mouse 4T1 cells in dose dependent manner (FIG. 8). […] The Inventors also tested other compounds in TNBC cell cytotoxicity assays, but these required much higher amounts (>[…]) even for ˜40% cell death.

The next assay concerns 4T1 cells. In words: Cell viability of 4T1 cells. To be noted: Mus musculus, 72h. The format is cell-based. Here is the method:
as §1, §2

The source of these data is US20230226079A1, “METHODS AND COMPOSITIONS FOR TREATMENT OF SOLID TUMORS” (Saint Louis University, priority 2022, published 2023).

Structures are written as SMILES. Values after ≈ are worked out from the molar mass of the structure shown.

As to `CC(C)=CC(O)CC(C)[C@H]1CC[C@@]2(C)[C@@H]3[C@@H](O)C=C4[C@@H](CC[C@H](O)C4(C)C)[C@]3(C=O)CC[C@]12C` (stereo partly drawn) [M-I, (3S, 7S, 8S, 9R, 10R, 13R, 14S, 17R) 3,7-dihydroxy-17-(4-hydroxy-6-methylhept-5-en-2-yl)-4,4,13,14-tetramethyl-2,3,7,8,10,11, 12,15, 16,17-decahydro-1H-cyclopenta[a]phenanthrene-9-carbaldehyde], the “c-Met and c-Myc expression in tumors versus control” value in the assay on c-Met and c-Myc is reported as “significant reduction”. In addition, the IC50 in the assay on MDA-MB-231 cells is 12 µg/mL (≈ 25.4 µM); in the assay with 4T1 cells it was 5 µg/mL (≈ 10.6 µM).

As a reminder, the IC50 is the midpoint of a concentration-inhibition curve. Higher therefore signals lower potency.
